Data reported in patent publication US7951548B2, “IL-13 production inhibitor” (Takeda Pharmaceutical Company Limited, priority 2005, dated 2011).

Experiments:
[1] = test system: rat peritoneal mast cells; assay: Expression of IL-13 in rat peritoneal mast cells (TaqMan PCR, GAPDH corrected); type: cell-based
Description: Rat peritoneal mast cells (hereinafter RPMC) were prepared as follows. Ice-chilled mast cell medium (hereinafter MCM; 150 mM NaCl, 3.7 mM KCl, 3.0 mM NaH2PO4, 3.5 mM KH2PO4, 5.6 mM (D)-Glucose, 0.1% bovine serum albumin (hereinafter BSA), 0.1% gelatin, 10 U/ml heparin, pH 6.8) was injected into the peritoneal cavity in about 40 ml/animal. After some massage of the rat abdominal region for about 2 minutes, the peritoneal cavity was opened along the median line to drain the ascitic fluid. The ascetic fluid prepared was filtered through a cell strainer (Becton Dickinson) and centrifuged at 50×g for 7 minutes. The cells precipitated were suspended in MCM and centrifuged again at 50×g for 7 minutes. After the precipitated cells were resuspended in MCM, the suspension was layered on 2 ml of 32% (w/v) BSA solution (dissolved in 0.9% NaCl), which was allowed to stand at room temperature for 20 minutes. After centrifugation was conducted at ×300 g for 15 minutes at room temperature, the cells in the interphase between MCM and BSA solution were discarded and the precipitated cells were suspended in MCM. The suspension was centrifuged at ×300 g for 5 minutes to wash the cells twice. The precipitated cells were suspended in assay buffer (RPMI 1640 medium (Invitrogen), 0.1% BSA) and the cells were provided for the following experiment. […] RPMC was activated as follows. RPMC was suspended in assay buffer and 10 μg/ml of monoclonal mouse antibody DNP-IgE (Yamasa) was added thereto. The mixture was allowed to stand for 30 minutes on ice for passive sensitization. After centrifugation at ×300 g for 5 minutes, the precipitated cells were washed 3 times with assay buffer. RPMC suspended in assay buffer was dispensed into a 96 well V-bottomed plate in 2×10^5/well. The assay was performed at n=3 under the respective reaction conditions. After a plate was kept warm at 37° C. for 5 minutes, lysoPS (Sigma) of 3 μM in a final concentration or DNP-BSA (Carbiochem) of 100 ng/ml in a final concentration was added depending on the assay conditions and the plate was allowed to stand at 37° C. in a 5% CO2 incubator. The plate was ice-cooled 2, 4, 6 and 8 hours after to terminate the activation of RPMC. Centrifugation was performed at ×300 g for 5 minutes and the total RNA was extracted from the cells precipitated using RNeasy Mini Kit (Qiagen) in accordance with the protocol attached. The obtained total RNA was concentrated and dissolved in RNase-free H2O in accordance with the protocol attached. Next, using 250 ng of the total RNA, reverse transcription was performed by the following procedure using SuperScript II ReverseTranscriptase (Invitrogen) to prepare single-stranded cDNA. After 0.5 μg of Oligo (dT) 12-18 primer (Invitrogen) and 1 μl of 10 mM dNTP (Invitrogen) were added to the total RNA solution and then RNase-free H2O was added to make the whole volume 12 μl, incubation was performed at 70° C. for 10 minutes followed by ice cooling for a minute. After adding 4 μl of 5× First-Strand Buffer (attached to SuperScript II ReverseTranscriptase), 2 μl of 0.1M DTT (attached to SuperScript II ReverseTranscriptase), 1 μl of RNaseOUT (Invitrogen) and 1 μl of SuperScript II ReverseTranscriptase, incubation was performed at 42° C. for 50 minutes and then at 70° C. for 15 minutes, followed by ice cooling for 5 minutes. The thus prepared cDNA was purified using Ethachinmate in accordance with the protocol attached and dissolved in Tris-EDTA Buffer (Fluka).
In TaqMan PCR below, rIL-13-tF (SEQ ID NO: 24) and rIL-13-tR (SEQ ID NO: 25) were used as primers and rIL-13-tP (SEQ ID NO: 26) as a probe for quantification of rat IL-13 (interleukin-13) and rIL-13 standard (SEQ ID NO: 27) was used as a standard. TaqMan Rodent GAPDH Control Reagents VIC Probe (Applied Biosystems) were used as primers and a probe for quantification of GAPDH, and rGAPDH standard (SEQ ID NO: 28) was used as a standard. […]

[2] = test system: rat primary culture microglial cells (PMGC); assay: Changes of intracellular calcium levels in rat primary culture microglial cells (FLIPR); type: cell-based; details: 0.2 to 10 μM lysoPS
Description: The reactivity of rat primary culture microglial cells (PMGC) with lysoPS was examined using FLIPR. PMGC was incubated in DMEM (Invitrogen) supplemented with 10% calf fetal serum (Invitrogen), unless otherwise indicated. PMGC, which was prepared from the brain of rat of one day old one day before assay, was plated on a Black walled 96-well plate (Costar) at 5.0×10^4 cells/well, and incubated overnight at 37° C. in a CO2 incubator adjusted to 5% CO2. After lysoPS was added to the PMGC, changes of intracellular calcium levels in this case were assayed using FLIPR (Molecular Device). To assay the changes of intracellular calcium levels on FLIPR, the following pretreatment was performed. First, an assay buffer was prepared to incorporate fluorescent dye Fluo-3AM (DOJIN) in the cells or wash the cells immediately before the FLIPR assay. To a solution of 20 ml of 1M HEPES (pH 7.4) (DOJIN) to 1000 ml of HBSS (Invitrogen) (hereinafter, HBSS/HEPES solution), 10 ml of the solution mixture obtained by dissolving 710 mg of Probenecid (Sigma) in 5 ml of 1N NaOH and further adding 5 ml of the HBSS/HEPES solution thereto was added. The resulting solution was used as an assay buffer. Next, 50 μg of Fluo-3AM was dissolved in 21 μl of DMSO (DOJIN) and an equal volume of 20% Pluronic acid (Molecular Device) was further mixed therewith. […]

[3] = antigen (DNP-BSA 100 ng/ml)+lysoPS 3 μM, 4 hours after the stimulation
[4] = antigen+lysoPS 3 μM, 6 after the stimulation
[5] = antigen+lysoPS 3 μM, 8 hours after the stimulation

## lysophosphatidylserine [lysoPS]
[1]; [3]
  expression level of IL-13 after GAPDH correction, compared to stimulation by the antigen alone: about 36 times
  expression level of IL-13 after GAPDH correction, compared to the level without any stimulation: about 27 times
[1]; [4]
  expression level of IL-13, compared to stimulation by the antigen alone: about 19 times
  expression level of IL-13, compared to the level without any stimulation: about 13 times
[1]; [5]
  expression level of IL-13 after GAPDH correction, compared to stimulation by the antigen alone: about 27 times
  expression level of IL-13 after GAPDH correction, compared to the level without any stimulation: about 13 times
[1]; stimulated by the antigen+lysoPS
  expression level of IL-13 (in words): marked increase in expression
[2]
  increase in intracellular calcium levels: responded concentration-dependently
